The record followed here is US20200383985A1, “Inhibitors of Protease Activated Receptor-2” (Endosome Therapeutics, Inc., priority 2017, published 2020).

For test [1], the system named is PKC and cAMP. Briefly: FRET assays of PKC and cAMP in HEK293 cells. In kind it is cell-based. As for the experimental part: I-343, but not SCH530348, inhibited trypsin stimulation of PKC and cAMP, which thus depend on PAR2 (FIGS. 19G and H). […] The sustained plasma membrane cAMP response to trypsin support the existence of mechanisms that allow persistent PAR2 signaling, which warrant further investigation.
HEK293 cells were cultured in DMEM supplemented with 10% (v/v) FBS (5% CO2, 37° C.). When necessary serum restriction was achieved by replacing culture medium with DMEM containing 0.5% FBS overnight. Cells were transiently transfected using polyethylenimine (PEI) (1:6 DNA:PEI).
HEK293 cells were transiently transfected in 10 cm dishes (˜50% confluency) with Flag-PAR2-HA (2.5 μg) and FRET biosensors CytoEKAR or NucEKAR (2.5 μg) (Jensen, D. D. et al., Sci Transl Med. 2017, 9(392), eaal3447; Thomsen, A. R. B., et al., Cell 2016, 166(4): 907-919). In experiments examining the role of dynamin, cells were transfected with FLAG-PAR2-HA (1.25 μg), FRET biosensor (1.25 μg) and either DynWT-HA, DynK44E-HA or pcDNA3.1 (2.5 μg). At 24 h after transfection, cells were seeded on ViewPlate-96 well plates (PerkinElmer). FRET was assessed 72 h post-transfection, following overnight serum restriction. Cells were equilibrated in HBSS-HEPES (30 min, 37° C.). FRET was measured using a PHERAstar FSX Microplate Reader (BMG LabTech). For CFP/YFP emission ratio analysis, cells were sequentially excited using a CFP filter (425/10 nm) with emission measured using YFP (550/50 nm) and CFP (490/20 nm) filters. FRET was measured before and after stimulation with trypsin (10 nM), NE (100 nM), CS (100 nM), phorbol 12,13-dibutyrate, PDBu (positive control, 1 μM), or vehicle. FRET ratios (donor/acceptor intensity for EKAR, or acceptor/donor intensity for CKAR and Epac) were calculated and corrected to baseline and vehicle treatments to determine ligand-induced FRET (ΔFRET). Treatment effects were determined by comparison of area under the curve values. Signalling inhibitors were dissolved in HBSS-HEPES. PS2 and PS2 inact were dissolved in HBSS-HEPES+1% DMSO. […]

Test [2] deals with T1, PAR2-RLuc8/βARR2-YFP (Homo sapiens, UniProt P55085).
T1 construct: expressed in transfected cells; host or cells: mouse (C57BL/6) DRG neurons, nucleofection
T1 sequence (P55085 26-397): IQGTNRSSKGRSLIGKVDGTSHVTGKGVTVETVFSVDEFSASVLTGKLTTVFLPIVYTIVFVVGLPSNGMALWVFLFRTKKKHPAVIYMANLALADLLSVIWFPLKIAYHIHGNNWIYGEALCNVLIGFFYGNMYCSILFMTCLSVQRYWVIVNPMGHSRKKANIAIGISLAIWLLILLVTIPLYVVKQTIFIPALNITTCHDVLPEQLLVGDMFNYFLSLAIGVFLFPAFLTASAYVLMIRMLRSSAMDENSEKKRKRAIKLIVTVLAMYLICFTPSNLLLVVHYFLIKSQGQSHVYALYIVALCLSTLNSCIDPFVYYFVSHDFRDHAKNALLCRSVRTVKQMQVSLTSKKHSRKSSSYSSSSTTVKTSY
As to the kind of experiment: BRET assay of βARR2 recruitment in DRG neurons. In kind it is cell-based. As to conditions: mouse DRG neurons. Here is the method:
To assess endocytosis of PAR2 in nociceptors, mouse (m) PAR2-GFP was transfected in to mouse DRG neurons. In vehicle-treated neurons, mPAR2-GFP was detected at the plasma membrane and in intracellular compartments that may correspond to stores of PAR2 in the Golgi apparatus (FIG. 4A) (Jensen D. D., et al. J Biol Chem. 2016, 291(21): 11285-11299). Trypsin, but not NE or CS (100 nM, 30 min), induced mPAR2-GFP endocytosis (FIG. 4A, B). Dy4, but not Dy4 inact, inhibited trypsin-induced endocytosis of mPAR2-GFP (FIG. 4C). To determine whether PAR2 recruits βARRs, which mediate endocytosis, Bioluminescence Resonance Energy Transfer (BRET) sensors were expressed for PAR2-RLuc8 (donor) and βARR2-YFP (acceptor) in mouse DRG neurons. Trypsin, but not NE or CS, increased PAR2-RLuc8/βARR2-YFP BRET (FIG. 4D).
DRG were collected from C57BL/6 mice and Sprague-Dawley rats (all levels). […]
Mouse DRG neurons were equilibrated in HBSS-HEPES (30 min, 37° C.), and incubated with the Renilla luciferase substrate coelenterazine h (NanoLight Technologies) (5 μM, 5 min). BRET ratios were measured at 475±30 nm and 535±30 nm using a CLARIOstar Monochronometer Microplate Reader (BMG LabTech) before and after challenge with trypsin (10 nM), NE (100 nM) or CS (100 nM). Data are presented as a BRET ratio, calculated as the ratio of YFP to RLuc8 signals, and normalized to the baseline average. […]

As to `Cc1nc(C(=O)N2CCN(C(=O)c3cn4nc(-c5ccc(F)cc5)cc(C(C)(C)C)c4n3)C(C)(C)C2)n[nH]1` [Compound I-343, (8-(tert-butyl)-6-(4-fluorophenyl)imidazo[1,2-b]pyridazin-2-yl)(2,2-dimethyl-4-(5-methyl-1H-1,2,4-triazole-3-carbonyl)piperazin-1-yl)methanone], the “trypsin stimulation of PKC and cAMP” value in test [1] (HEK293 cells) was “inhibited”.

In the case of “NE: protease (elastase) activating PAR2 by biased mechanisms”, the “PAR2-RLuc8/βARR2-YFP BRET” value in test [2] is “not”.

trypsin: the “PAR2-RLuc8/βARR2-YFP BRET” value in test [2] is given as “increased”. Moreover, the “PKC activation and cAMP generation at the plasma membrane and in the cytosol” value in test [1] (trypsin 10 nM) is “rapid and sustained activation”.
